This passage reports IC50, AC50 and EC50 results from ChEMBL document CHEMBL1201862, “PubChem BioAssay data set” (2004).

A word on the IC50: it is the concentration at which inhibition is half-maximal. Usually AC50 stands for the midpoint of the concentration-response curve, whichever way the signal moves. A word on the EC50: it is the concentration at which the effect is half-maximal.

Some targets named below: Cytochrome P450 3A4 (Homo sapiens, UniProt P08684); Cytochrome P450 2C9 (Homo sapiens, UniProt P11712); Cytochrome P450 2D6 (Homo sapiens, UniProt P10635).
In data set [1] the target is T1, Tyrosine-protein phosphatase non-receptor type 22 (Homo sapiens, UniProt Q9Y2R2).
T1 sequence (Q9Y2R2 whole entry): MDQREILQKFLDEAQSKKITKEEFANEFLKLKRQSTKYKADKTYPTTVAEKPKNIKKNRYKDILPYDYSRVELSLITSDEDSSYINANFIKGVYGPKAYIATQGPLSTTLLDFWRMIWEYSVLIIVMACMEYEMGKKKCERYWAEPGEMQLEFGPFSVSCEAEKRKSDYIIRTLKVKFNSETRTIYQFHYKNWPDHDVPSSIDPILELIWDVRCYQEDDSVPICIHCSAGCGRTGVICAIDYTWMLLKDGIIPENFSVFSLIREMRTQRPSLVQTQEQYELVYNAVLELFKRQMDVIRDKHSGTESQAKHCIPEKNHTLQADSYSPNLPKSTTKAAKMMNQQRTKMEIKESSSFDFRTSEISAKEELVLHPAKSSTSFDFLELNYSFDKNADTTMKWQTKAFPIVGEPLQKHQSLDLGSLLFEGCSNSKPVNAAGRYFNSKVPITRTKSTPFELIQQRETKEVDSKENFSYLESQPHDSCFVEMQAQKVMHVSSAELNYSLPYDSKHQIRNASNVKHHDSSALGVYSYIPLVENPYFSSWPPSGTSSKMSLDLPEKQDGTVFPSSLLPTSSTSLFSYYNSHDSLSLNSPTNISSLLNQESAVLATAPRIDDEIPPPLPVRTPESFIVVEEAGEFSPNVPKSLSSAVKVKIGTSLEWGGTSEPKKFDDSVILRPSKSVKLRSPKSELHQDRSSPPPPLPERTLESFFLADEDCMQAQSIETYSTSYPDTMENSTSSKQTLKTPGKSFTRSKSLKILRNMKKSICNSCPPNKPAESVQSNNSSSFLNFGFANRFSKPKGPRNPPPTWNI
Format: functional.

In data set [2] the target is T2, Tyrosine-protein phosphatase non-receptor type 7 (Homo sapiens, UniProt P35236).
T2 sequence (P35236 whole entry): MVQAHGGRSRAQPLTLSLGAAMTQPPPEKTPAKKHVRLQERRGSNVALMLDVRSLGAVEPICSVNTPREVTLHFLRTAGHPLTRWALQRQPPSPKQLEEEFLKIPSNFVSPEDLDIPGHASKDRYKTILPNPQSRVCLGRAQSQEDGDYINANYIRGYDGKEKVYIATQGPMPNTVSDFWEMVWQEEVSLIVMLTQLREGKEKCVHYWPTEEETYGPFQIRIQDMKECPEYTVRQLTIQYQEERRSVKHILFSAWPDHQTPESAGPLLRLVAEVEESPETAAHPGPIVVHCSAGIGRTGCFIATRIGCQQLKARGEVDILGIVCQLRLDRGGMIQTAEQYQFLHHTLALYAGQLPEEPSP
It counts as functional.

The target of data set [3] is T1, Tyrosine-protein phosphatase non-receptor type 22. Format: functional. The source holds these as a separate data set.
Data set [4] deals with T3, Ubiquitin-conjugating enzyme E2 N (Homo sapiens, UniProt P61088).
T3 sequence (P61088 whole entry): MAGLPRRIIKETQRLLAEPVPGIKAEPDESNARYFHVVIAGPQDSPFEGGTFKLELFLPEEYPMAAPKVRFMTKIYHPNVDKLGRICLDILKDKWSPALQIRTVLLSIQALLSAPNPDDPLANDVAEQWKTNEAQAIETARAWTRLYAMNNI
Format: functional.

In the next data set the target is T4, Bcl-2-related protein A1 (Mus musculus, UniProt Q07440).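 Note: confirmatory dose–response counterscreen on Bfl-1, used to check hits from a UBC13 polyubiquitin inhibitor campaign.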
T4 sequence (Q07440 whole entry): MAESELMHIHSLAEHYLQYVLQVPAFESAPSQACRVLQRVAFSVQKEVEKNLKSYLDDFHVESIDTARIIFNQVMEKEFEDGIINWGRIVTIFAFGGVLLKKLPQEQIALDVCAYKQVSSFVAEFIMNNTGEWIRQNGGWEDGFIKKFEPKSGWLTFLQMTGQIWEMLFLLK
It counts as functional.

Data set [5] has as its target T3, Ubiquitin-conjugating enzyme E2 N. It counts as functional. This is another data set of the same source.
Data set [6] deals with Luciferin 4-monooxygenase (Photinus pyralis, UniProt P08659). The data set can be described thus: firefly luciferase enzyme inhibitors, dose response, biochemical, luminescence (AID 1891).
Chain of Luciferin 4-monooxygenase (P08659 whole entry): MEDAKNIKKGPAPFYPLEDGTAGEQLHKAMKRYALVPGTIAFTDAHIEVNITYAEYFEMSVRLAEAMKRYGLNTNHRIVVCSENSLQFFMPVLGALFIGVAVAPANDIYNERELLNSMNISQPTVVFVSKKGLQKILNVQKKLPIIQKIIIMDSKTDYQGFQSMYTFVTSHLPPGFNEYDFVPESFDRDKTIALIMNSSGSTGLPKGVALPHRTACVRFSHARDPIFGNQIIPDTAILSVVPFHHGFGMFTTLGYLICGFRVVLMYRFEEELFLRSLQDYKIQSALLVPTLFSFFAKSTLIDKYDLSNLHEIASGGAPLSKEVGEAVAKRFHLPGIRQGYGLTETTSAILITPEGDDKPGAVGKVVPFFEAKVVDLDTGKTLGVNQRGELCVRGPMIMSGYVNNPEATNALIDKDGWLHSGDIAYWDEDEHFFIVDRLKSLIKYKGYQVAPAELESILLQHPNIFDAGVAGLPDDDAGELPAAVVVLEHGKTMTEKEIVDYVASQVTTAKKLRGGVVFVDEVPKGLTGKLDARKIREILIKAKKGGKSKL
The target of data set [7] is T5, Short transient receptor potential channel 4 (Mus musculus, UniProt Q9QUQ5).
T5 sequence (Q9QUQ5 whole entry): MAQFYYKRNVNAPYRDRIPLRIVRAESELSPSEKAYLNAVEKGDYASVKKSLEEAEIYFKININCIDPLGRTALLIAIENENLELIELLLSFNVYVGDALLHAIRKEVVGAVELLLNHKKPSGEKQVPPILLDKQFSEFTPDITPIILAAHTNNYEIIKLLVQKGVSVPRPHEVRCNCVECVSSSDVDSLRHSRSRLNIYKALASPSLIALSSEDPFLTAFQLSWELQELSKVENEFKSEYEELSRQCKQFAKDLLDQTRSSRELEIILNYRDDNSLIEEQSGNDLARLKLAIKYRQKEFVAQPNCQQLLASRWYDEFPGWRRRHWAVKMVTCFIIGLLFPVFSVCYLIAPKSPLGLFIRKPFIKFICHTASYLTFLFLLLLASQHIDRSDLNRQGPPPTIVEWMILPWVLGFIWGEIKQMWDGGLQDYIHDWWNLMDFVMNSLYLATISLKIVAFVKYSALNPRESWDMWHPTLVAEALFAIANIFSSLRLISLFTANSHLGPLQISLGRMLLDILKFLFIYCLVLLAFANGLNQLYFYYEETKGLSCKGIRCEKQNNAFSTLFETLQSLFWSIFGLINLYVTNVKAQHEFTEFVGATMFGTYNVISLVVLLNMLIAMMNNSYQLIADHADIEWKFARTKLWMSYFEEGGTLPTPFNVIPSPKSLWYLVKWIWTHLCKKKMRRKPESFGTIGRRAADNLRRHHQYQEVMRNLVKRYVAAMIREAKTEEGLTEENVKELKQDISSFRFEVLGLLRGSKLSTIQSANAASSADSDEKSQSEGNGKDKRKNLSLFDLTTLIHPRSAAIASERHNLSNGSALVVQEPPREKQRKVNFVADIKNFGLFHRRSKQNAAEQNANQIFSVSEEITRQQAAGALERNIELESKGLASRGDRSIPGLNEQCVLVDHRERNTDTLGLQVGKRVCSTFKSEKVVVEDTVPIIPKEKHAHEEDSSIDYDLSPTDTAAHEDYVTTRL
The data set can be described thus: mouse TRPC4 channel activators, dose response, cell-based, HEK293 TRPC4/mu-opioid, Fluo-4 calcium (AID 434937). It counts as functional.

A short description of data set [8]: Luminescence Cell-Based Dose Confirmation HTS to Identify Inhibitors of Platelet Dense Granule Release. [Related pubchem assays: 1663 (Primary HTS), 1678 (Summary of Project)]. It counts as functional.
Data set [9] deals with Beta-lactamase (Salmonella choleraesuis (strain SC-B67), UniProt Q5J463). The data set is described as follows: Epi-absorbance-based counterscreen for selective VIM-2 inhibitors: dose response biochemical high throughput screening assay to identify inhibitors of TEM-1 serine-beta-lactamase. (A counterscreen serves to expose hits that act by an unwanted route or on another target.)
Chain of Beta-lactamase (Salmonella choleraesuis (strain SC-B67), UniProt Q5J463) (Q5J463 whole entry): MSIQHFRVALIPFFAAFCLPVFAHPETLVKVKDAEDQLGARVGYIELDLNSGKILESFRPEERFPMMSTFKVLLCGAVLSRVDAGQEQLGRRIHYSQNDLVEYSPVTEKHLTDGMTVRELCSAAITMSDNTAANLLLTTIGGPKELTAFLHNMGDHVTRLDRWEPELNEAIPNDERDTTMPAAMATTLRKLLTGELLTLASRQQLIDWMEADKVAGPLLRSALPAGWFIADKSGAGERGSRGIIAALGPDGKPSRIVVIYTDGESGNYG

Data set [10] concerns the target T6, Beta-lactamase (Pseudomonas aeruginosa, UniProt Q79MP6). The data set is described as follows: […] counterscreen for selective VIM-2 inhibitors: dose response biochemical high throughput screening assay to identify inhibitors of IMP-1 metallo-beta-lactamase.
The next data set deals with T7, Cytochrome P450 1A2 (Homo sapiens, UniProt P05177).
T7 sequence (P05177 whole entry): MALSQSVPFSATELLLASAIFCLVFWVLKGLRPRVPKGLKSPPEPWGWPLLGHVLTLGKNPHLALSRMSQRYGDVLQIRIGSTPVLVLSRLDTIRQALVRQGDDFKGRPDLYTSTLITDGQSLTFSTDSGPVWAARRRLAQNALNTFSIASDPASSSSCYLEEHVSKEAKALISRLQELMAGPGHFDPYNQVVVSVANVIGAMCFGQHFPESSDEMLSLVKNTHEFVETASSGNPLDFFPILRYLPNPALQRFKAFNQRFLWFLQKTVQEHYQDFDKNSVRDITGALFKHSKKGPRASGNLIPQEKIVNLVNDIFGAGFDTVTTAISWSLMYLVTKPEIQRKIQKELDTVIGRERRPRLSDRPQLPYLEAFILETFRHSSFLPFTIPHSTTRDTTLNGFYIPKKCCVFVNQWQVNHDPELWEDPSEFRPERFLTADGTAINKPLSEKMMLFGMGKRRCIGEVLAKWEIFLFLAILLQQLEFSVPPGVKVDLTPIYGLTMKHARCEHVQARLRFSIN

The target in data set [11] is T6, Beta-lactamase. The data set can be described thus: IMP-1 metallo-beta-lactamase inhibitors, dose response, selectivity assay for VIM-2 inhibitor project, biochemical, epi-absorbance (AID 1920).
Data set [12] concerns the target T8, Orexin/Hypocretin receptor type 1 (Homo sapiens, UniProt O43613).
T8 sequence (O43613 whole entry): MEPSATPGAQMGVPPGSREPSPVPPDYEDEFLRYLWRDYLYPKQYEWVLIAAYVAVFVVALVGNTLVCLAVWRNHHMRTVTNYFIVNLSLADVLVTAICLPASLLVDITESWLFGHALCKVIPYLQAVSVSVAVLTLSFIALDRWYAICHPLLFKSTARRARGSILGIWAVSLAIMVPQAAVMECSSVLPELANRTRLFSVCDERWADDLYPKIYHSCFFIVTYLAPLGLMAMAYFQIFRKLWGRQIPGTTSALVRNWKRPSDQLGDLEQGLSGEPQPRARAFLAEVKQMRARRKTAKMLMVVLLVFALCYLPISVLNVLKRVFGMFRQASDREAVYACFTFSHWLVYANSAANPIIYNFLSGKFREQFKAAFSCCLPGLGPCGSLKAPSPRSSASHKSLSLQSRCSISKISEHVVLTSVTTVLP
The data set is described as follows: Fluorescence-based cell-based high throughput dose response assay for antagonists of the orexin 1 receptor (OX1R; HCRTR1). [Related pubchem assays (depositor defined):AID434989, AID435008, AID463079, AID485270, AID492963, AID492964, AID492965, AID493232, AID504717, AID504718]. Format: functional.

A short description of data set [13]: Counterscreen for antagonists of the orexin 1 receptor (OX1R; HCRTR1): Fluorescence-based cell-based high throughput dose response assay to identify antagonists of the parental CHO cell line. [Related pubchem assays (depositor defined):AID434989, AID435008, AID463079, AID485270, AID492963, AID492964, AID492965, AID493232, AID504699, AID504701]. It counts as functional.

In data set [14] the target is T8, Orexin/Hypocretin receptor type 1. The data set is described as follows: Homogeneous Time Resolved Fluorescence (HTRF)-based cell-based high throughput dose response assay for antagonists of the orexin 1 receptor (OX1R; HCRTR1). [Related pubchem assays (depositor defined):AID434989, AID435008, AID463079, AID485270, AID492963, AID492964, AID492965, AID493232, AID504717, AID504718]. It counts as functional. For orientation: Time-resolved FRET reads energy transfer from a long-lived donor to a nearby acceptor.

Another data set has as its system CHO-K1. The data set can be described thus: Counterscreen for antagonists of the orexin 1 receptor (OX1R; HCRTR1): Homogeneous time resolved fluorescence (HTRF)-based cell-based dose response assay to identify antagonists of the parental CHO-K1 cell line. [Related pubchem assays (depositor defined):AID434989, AID435008, AID463079, AID485270, AID492963, AID492964, AID492965, AID493232, AID504699, AID504701]. It counts as functional. The conditions noted are these: Cricetulus griseus.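 Note: potency for inhibition of ATP-stimulated IP1 production as antagonists.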

SMILES strings stand for the structures. Activity calls are given as the source filed them.

Chain of Cytochrome P450 3A4 (P08684 whole entry): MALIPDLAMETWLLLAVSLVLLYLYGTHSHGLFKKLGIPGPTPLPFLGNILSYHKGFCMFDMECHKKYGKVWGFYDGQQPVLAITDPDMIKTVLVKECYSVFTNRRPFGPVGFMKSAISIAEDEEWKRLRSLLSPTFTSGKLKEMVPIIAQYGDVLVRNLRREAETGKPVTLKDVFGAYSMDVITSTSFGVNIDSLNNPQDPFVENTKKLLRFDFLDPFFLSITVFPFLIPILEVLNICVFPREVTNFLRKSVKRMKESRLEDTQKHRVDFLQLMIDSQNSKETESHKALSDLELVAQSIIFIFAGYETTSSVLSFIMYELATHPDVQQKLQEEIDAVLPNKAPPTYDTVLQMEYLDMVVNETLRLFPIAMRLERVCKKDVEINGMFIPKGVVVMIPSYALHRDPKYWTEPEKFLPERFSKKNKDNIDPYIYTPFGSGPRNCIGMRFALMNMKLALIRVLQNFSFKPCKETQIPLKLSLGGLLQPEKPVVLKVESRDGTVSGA
T6 sequence (Q79MP6 whole entry): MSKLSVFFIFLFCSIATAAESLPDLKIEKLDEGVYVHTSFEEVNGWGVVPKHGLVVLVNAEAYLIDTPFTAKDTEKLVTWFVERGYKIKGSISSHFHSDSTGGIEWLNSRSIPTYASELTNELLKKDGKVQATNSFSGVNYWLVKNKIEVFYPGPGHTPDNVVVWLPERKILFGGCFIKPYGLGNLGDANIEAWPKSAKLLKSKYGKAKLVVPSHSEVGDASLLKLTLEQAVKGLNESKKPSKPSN
Chain of Cytochrome P450 2D6 (P10635 whole entry): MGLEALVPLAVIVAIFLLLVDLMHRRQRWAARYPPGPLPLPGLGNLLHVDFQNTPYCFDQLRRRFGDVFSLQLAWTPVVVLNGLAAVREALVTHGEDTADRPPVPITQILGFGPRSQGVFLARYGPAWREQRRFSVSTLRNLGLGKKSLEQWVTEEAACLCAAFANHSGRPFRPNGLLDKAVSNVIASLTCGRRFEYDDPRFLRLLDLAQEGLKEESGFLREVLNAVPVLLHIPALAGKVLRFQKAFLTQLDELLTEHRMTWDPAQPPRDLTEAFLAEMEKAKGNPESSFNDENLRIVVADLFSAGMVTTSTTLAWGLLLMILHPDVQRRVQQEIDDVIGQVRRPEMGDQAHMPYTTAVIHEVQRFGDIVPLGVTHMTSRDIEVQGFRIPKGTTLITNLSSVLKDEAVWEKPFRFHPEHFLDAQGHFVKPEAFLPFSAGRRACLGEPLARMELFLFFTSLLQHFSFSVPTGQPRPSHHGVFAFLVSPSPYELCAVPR
Chain of Cytochrome P450 2C9 (P11712 whole entry): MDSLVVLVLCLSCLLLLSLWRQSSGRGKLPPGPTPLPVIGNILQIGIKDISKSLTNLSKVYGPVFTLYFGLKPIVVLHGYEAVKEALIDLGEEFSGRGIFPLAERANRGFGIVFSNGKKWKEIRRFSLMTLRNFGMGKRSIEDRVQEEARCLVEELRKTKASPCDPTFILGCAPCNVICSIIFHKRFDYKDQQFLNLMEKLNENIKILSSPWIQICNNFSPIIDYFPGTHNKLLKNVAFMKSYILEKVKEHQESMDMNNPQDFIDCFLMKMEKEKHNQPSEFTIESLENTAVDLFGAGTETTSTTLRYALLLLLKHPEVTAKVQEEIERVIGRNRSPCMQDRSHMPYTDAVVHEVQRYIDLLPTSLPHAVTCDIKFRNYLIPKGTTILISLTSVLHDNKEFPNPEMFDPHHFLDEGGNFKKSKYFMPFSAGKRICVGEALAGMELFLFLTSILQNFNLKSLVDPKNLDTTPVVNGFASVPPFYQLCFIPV

Take `COc1ccc(Cc2nnc(NC(=O)c3ccccc3F)s2)cc1OC`: the IC50 in data set [1], in data set [2] and in data set [3] was > 79.4 µM (inactive) in each case.

With `COC(=O)COc1ccc(/C=C2/SC(=O)N(CC(=O)N3CCCC3)C2=O)cc1Br`, the results for the AC50 result at Cytochrome P450 3A4 and on Cytochrome P450 2C9 were “inconclusive” and 10 µM (inconclusive), respectively.

For `CCN(CC(=O)NCc1cccs1)C(=O)c1cccc(S(=O)(=O)Nc2ccccc2OC)c1`, the IC50 in data set [4] was 17.1 µM (active); at Bcl-2-related protein A1 it was > 20 µM (inactive); in data set [5] it was 11.3 µM (active).

Take `CC1Cc2ccccc2N1CC(=O)Nc1cccc(S(N)(=O)=O)c1` (stereo not given): the IC50 in data set [1], in data set [2] and in [3] was > 79.4 µM (inactive) throughout.

In the case of `Cc1c(NC(=O)CCCN2C(=O)c3cccc4cccc(c34)C2=O)c(=O)n(-c2ccccc2)n1C`, the IC50 in data set [4] is 18.5 µM (active); at Bcl-2-related protein A1, > 20 µM (inactive); in data set [5], 8.02 µM (active).

On to `CN1CCCC(OC(=O)c2cc(Br)ccc2Cl)C1` (stereo not given), for which the figures for the EC50 in data set [6], in data set [7] and in data set [8] were > 112 µM (not active), 0.211 µM (active) and > 56.1 µM (not active), respectively.

For `COc1ccc(-c2nn(-c3ccccc3)cc2CNCc2cccnc2)c(F)c1`, the EC50 in data set [7] was 5.96 µM (active).

Regarding `Cc1csc2c(N3CCN(C(=O)Nc4ccc(OC(F)(F)F)cc4)CC3)ncnc12`, the EC50 in data set [7] is 1.88 µM (active).

`O=C(Cn1cnc2ccccc2c1=O)NCCC(=O)Nc1ccc2c(c1)OCCO2`: the AC50 entry at Cytochrome P450 3A4 and at Cytochrome P450 2D6 was “inconclusive” each time.

As to `CCCC(=O)Nc1nnc(SCC(=O)NCc2cccs2)s1`, the values for the AC50 entry at Cytochrome P450 3A4 and on Cytochrome P450 1A2 were “inconclusive” and 10 µM (inconclusive), respectively. In addition, the IC50 on Beta-lactamase [9], at Beta-lactamase [10] and at Beta-lactamase [11] was > 59.6 µM (inactive) each time.

Consider `Oc1ccccc1-c1nc(NCC2CCCO2)c2ccccc2n1` (stereo not given), for which the IC50 in [12] was 8.66 µM (active); in data set [13], 45.8 µM (inactive); in data set [14], 3.73 µM (active); in the data set on CHO-K1, > 66.2 µM (inactive).
